In experiment [1] the test system is cells synthesizing GABA among the cells expressing Pax6-GFP. In words: Immunofluorescence staining: ratio of cells synthesizing GABA among cells expressing Pax6-GFP. The class given is cell-based. Conditions: Pax6-GFP transgenic mouse neuronal precursor cells; aucubin 0.01-10 μM vs untreated; FIG. 4C. The text has this: (§1) In order to culture neurons, cells were obtained from the brain of an E16 rat embryo according to a method known in the art (Lim et al., 2007; Jo et al., 2007). Specifically, hippocampal eminence was isolated from the forebrain of the E16 rat embryo, and cells were mechanically isolated from the thus-obtained hippocampal eminence tissue by using Ca^2+/Mg^2+-free HBSS(Hanks' Balanced Salt Solution, Invitrogen). PAX6-GFP expressing neuronal precursor cells (NPCs) were isolated from the sub ventricular zone of a PAX6-GFP transgenic mouse.
(§2) The culture of cells was supplemented with 10 ng/mL or 20 ng/mL of bFGF (basic fibroblast growth factor, Invitrogen), and culturing was performed for 3 days in a serum-free N2 medium. After the confluency of cells reaches 70% to 80% by culturing for 3 to 4 days, the cells were subjected to passaging, and then divided and seeded according to an experimental use. Subsequently, the cells were cultured for 7 days in a N2 medium where FGF is removed, allowing neurons to be sufficiently differentiated. The cells were treated with aucubin (Sigma) at varying concentrations (0 μM, 0.01 μM, 0.1 μM, 1 μM, or 10 μM) in a bFGF-free N2 medium. […]
(§3) For GFP-fluorescence staining, an anti-GFP (rabbit anti-GFP antibody, 1:500, Merck, Germany) primary antibody was used. […]

Experiment [2] concerns glutamatergic neurons expressing a vGluT1 marker. Put plainly: Immunofluorescence staining: survival rate of glutamatergic neurons expressing a vGluT1 marker. Conditions: aucubin 0.01-10 μM vs cells not treated with aucubin; increase remarkably lower than for GABAergic neurons; FIG. 1B. The class given is cell-based, rat.
Description: as §1, §2
(§4) Thereafter, the number of the stained cells was counted and the survival rates thereof were shown in a graph. […]

The test system of experiment [3] is GABAergic neurons expressing a GAD65/67 marker. Put plainly: Immunofluorescence staining: survival rate of GABAergic neurons in ChAT-GFP transgenic mouse culture. The class given is cell-based. The conditions noted are these: ChAT-GFP transgenic mouse cells; aucubin 0.01-10 μM vs untreated; relative to total DAPI-stained cells; FIG. 2b. The protocol: as §2, §3
(§5) Thereafter, the number of the stained cells was counted, and compared with the number of the cells expressing a GABAergic neuron-specific marker (GAD65/67), and the survival rates thereof were shown in a graph.
(§6) Specifically, the cells cultured by the method according to Experimental Example 1 were treated with aucubin at varying concentrations of 0 μM, 0.01 μM, 0.1 μM, 1 μM, and 10 μM, respectively. The number of GABAergic neurons expressing a GAD65/67 marker and the number of cholinergic neuron expressing a ChAT-GFP marker were shown in graphs as survival rates relative to the total number of cells which were fluorescence stained with DAPI.

For another experiment, the system named is vGluT1. Put plainly: Immunoblot analysis: expression of vGluT1 (glutamatergic neuron-specific marker). It is filed as cell-based, rat. Conditions: relative to β-actin, aucubin 0.01-10 μM vs untreated, remarkably lower than GAD65/67, FIG. 3A, D. The source says: (§7) In order to culture neurons, cells were obtained from the brain of an E16 rat embryo according to a method known in the art (Lim et al., 2007; Jo et al., 2007). Specifically, hippocampal eminence was isolated from the forebrain of the E16 rat embryo, and cells were mechanically isolated from the thus-obtained hippocampal eminence tissue by using Ca^2+/Mg^2+-free HBSS(Hanks' Balanced Salt Solution, Invitrogen). PAX6-GFP expressing neuronal precursor cells (NPCs) were isolated from the sub ventricular zone of a PAX6-GFP transgenic mouse. […]
(§8) Specifically, cells (30,000 cells/cm^2), which were cultured in a 60 mm petri dish coated with 15 μg/mL of poly-L-ornithine (Sigma-Aldrich, USA) and 1 μg/mL of fibronectin (Sigma-Aldrich, USA), were used. […] The protein quantification was performed using a Bradford protein assay kit (Bio-Rad, Hercules, Calif., USA).
(§9) Subsequently, a mixture of 20 μg of the proteins and a loading buffer (Biosesang Co., Seoul, Korea) was boiled at 100° C. for 10 minutes to denature the proteins. […] Thereafter, signals were detected after culturing the proteins with a secondary antibody.
(§10) In order to verify the effect of aucubin on enhancing the survival rates of GABAergic and glutamatergic neurons, the cells were treated with aucubin, followed by quantifying the expression levels of each cell type marker by an immunoblot method. […]
On the technique in general: Immunoblotting shows a protein as a band on a membrane.

A further experiment deals with GAD65/67. In words: Immunoblot analysis: expression of GAD65/67 (GABAergic neuron-specific marker). The class given is cell-based, rat. The conditions noted are these: relative to β-actin, aucubin 0.01-10 μM vs untreated, FIG. 3A, C.
Description: as §7, §8, §9, §10

In another experiment the test system is NeuN. Put plainly: Immunoblot analysis: expression of NeuN (mature neuron-specific marker). The class given is cell-based, rat. Conditions: relative to β-actin, aucubin 0.01-10 μM vs untreated, FIG. 3A, B.
Description: as §7, §8, §9, §10

Experiment [4] relates to GABAergic neurons expressing a GAD65/67 marker. Put plainly: Immunofluorescence staining: survival rate of GABAergic neurons expressing a GAD65/67 marker. It is filed as cell-based, rat. Conditions: aucubin 0.01-10 μM vs cells not treated with aucubin; survival rate relative to total number of cells; FIG. 1A.
Description: as §1, §2, §4

In experiment [5] the test system is neuronal precursor cells expressing Pax6-GFP. In words: Immunofluorescence staining: number of neuronal precursor cells expressing Pax6-GFP. It is filed as cell-based. The conditions noted are these: Pax6-GFP transgenic mouse neuronal precursor cells; aucubin 0.01-10 μM vs untreated; FIG. 4A, B.
Description: as §1, §2, §3

Experiment [6] concerns cholinergic neurons expressing a ChAT-GFP marker. In words: Immunofluorescence staining: survival rate of cholinergic neurons expressing a ChAT-GFP marker. It is filed as cell-based. Conditions: ChAT-GFP transgenic mouse cells; aucubin 0.01-10 μM vs untreated; relative to total DAPI-stained cells; FIG. 2b. The protocol:
as §2, §3, §5, §6

For `OCC1=C[C@@H](O)[C@@H]2C=CO[C@@H](O[C@@H]3O[C@H](CO)[C@@H](O)[C@H](O)[C@H]3O)[C@H]12` [aucubin], the “increase in ratio of cells synthesizing GABA among the cells expressing Pax6-GFP” value in experiment [1] is listed as at least 1.5 fold. The “survival rate of excitatory neurons expressing vGluT1” value in experiment [2] is on record as “significantly increased”. The “increase in survival rate of GABAergic neurons expressing a GAD65/67 marker” value in experiment [3] was about 2 fold. Also, the “expression of vGluT1 (glutamatergic neuron-specific marker)” value with vGluT1 is reported as “significantly increased”. In addition, the “increase in expression of GAD65/67 (GABAergic neuron-specific marker)” value with GAD65/67 is recorded as “up to 5 fold”. Also, the “expression of NeuN (mature neuron-specific marker)” value in the experiment with NeuN is reported as “remarkably increased”. For the same compound, the “increase in survival rate of GABAergic neurons expressing a GAD67/65 marker” value in [4] is recorded as “up to 2 fold”. The “increase in number of cells which express Pax6-GFP” value in [5] was “about 2 fold”. Also, in experiment [6], the “survival rate of cholinergic cells expressing a ChAT-GFP marker” value is on record as “the increase rate thereof was not significant”.

These data come from patent publication US11166970B2, “Composition for preventing or treating neurological disorder comprising aucubin” (University-Industry Cooperation Group of Kyung Hee …, priority 2017, dated 2021).
